Experimental data: BindingDB's records for doi:10.1021/jm00167a032 (Sankyo, 1990)

Molecular target: Arachidonate 5-lipoxygenase (Cavia porcellus)
Test: Evaluated for inhibition of the formation and release of 5-lipoxygenase in guinea pig peritoneal PMNL

Structure (SMILES)	IC50
CCCCC1Oc2c(C)c(C)c(O)c(C)c2S1 (stereo unspecified)	59 nM
Cc1c(C)c2c(c(C)c1O)SC(CCC(N)=O)O2 (stereo unspecified)	520 nM
CCCCCCCC1Oc2c(C)c(C)c(O)c(C)c2S1 (stereo unspecified)	220 nM
Cc1c(C)c2c(c(C)c1O)SCO2	290 nM
CCCC1Oc2c(C)c(C)c(O)c(C)c2S1 (stereo unspecified)	25 nM
Cc1c(C)c2c(c(C)c1O)SC(c1ccccc1)O2 (stereo unspecified)	71 nM
